One block for each molecule: values may come before it. No end group written: not given here.
Experiments:
rat cardiomyocytes [1] = experiment: MTT reduction; format: cell-based
Method: (§1) One test compound (Compound A) was received as dry powder and evaluated for potential cytotoxicity in a battery of in vitro assays. The compound was tested using both rat cardiomyocytes (CM) from rat neonates and a rat hepatoma (H4IIE) cell line. […] The cell supernatant or the cells themselves were harvested for biochemical analysis. General cytotoxicity was evaluated by monitoring membrane integrity, mitochondrial function, cell proliferation, oxidative stress, and apoptosis. In addition, interaction with P-glycoprotein (PgP) on H4IIE cells and solubility of the test compound were also assessed. The means of each exposure group (n=3-7) were calculated for each assay performed.
(§2) Tetrazolium Dye Reduction: 3-[4,5-dimethylthiazol-2-yl]

[2] = tested on: H4IIE tumor cells, NRK cells, rat primary hepatocytes; experiment: Anti-tumor screen in three rat cell types; format: cell-based
From the text: In the Anti-tumor screen of the present invention, at least three different cell types are utilized: (1) tumor derived cells, (2) proliferating cells from normal tissue, and (3) non-proliferating cells from normal tissue. The evaluation of anti-tumor agents in multiple cell types provides information on mechanism-based toxicity versus efficacy.
The anti-tumor agent can be evaluated in a toxicity screen of key biochemical functions (as described in detail herein above), with emphasis placed on cell proliferation assays as well as biochemical function and cell viability. Comparisons can then be made to quantitative markers in the concentration response curves constructed with the toxicity data.
It is hypothesized to act through mitochondrial toxicity as well as apoptosis.

Intracellular ATP levels [3] = format: cell-based, rat; details: rat, ATP TC50
Method: as §1
(§3) Experimental Protocol: The test compound was provided and stored at 4° C. until needed. Dosing solutions were prepared in complete culture medium. The rat hepatoma (H4IIE) cell line was used as the test system.
(§4) Intracellular ATP Levels: Cellular Adenosine triphosphate (ATP) was determined with an assay based on a reaction between ATP+D-luciferin+oxygen catalyzed by luciferase to yield Oxyluciferin+AMP+PPi+CO2+light. The emitted light is proportional to the amount of ATP present. […] In addition, a unique cell lysis reagent inhibits endogenous ATPases and therefore stabilizes cellular ATP by preventing its degradation to ADP. ATP is present in all-living cells and declines rapidly upon cell death. In addition, this assay in combination with the MTT assay provides an indicator of mitochondrial activity and energy status of the cell.
(§5) Plates were analyzed immediately or stored at −20° C. until needed. On the day of analysis, the plates were thawed and calibration curve prepared with ATP in the same liquid matrix as samples. ATP was quantified by adding ATP substrate solution and then reading luminescence on a Packard Fusion Luminescence or equivalent plate reader.
(§6) Intracellular ATP Levels: ATP levels in treated cells could be determined by using the regression coefficients obtained from the linear regression analysis of the calibration curve. Thus, values could be expressed as pmoles ATP/million cells. Background corrected luminescence was used to determine percent change relative to controls by dividing treated values by control values and multiplying by 100.

H4IIE cells [4] = experiment: Predicted Ctox from Tox-Panel; format: cell-based, rat; details: 24 HR, estimated sustained plasma concentration where toxicity would be expected in vivo
Method: Once all data for a given cluster of assays are received, the data are analyzed to obtain a detailed profile of the compound's toxicity. For example, most conveniently, the data are collated over a dose response range on a single graph. In such an embodiment, the measurement evaluated for each parameter (i.e., each indicator of cell health) at any given concentration is plotted as a percentage of a control measurement obtained in the absence of the compound. However, it should be noted that the data need not be plotted on a single graph, so long as all the parameters are analyzed collectively to yield detailed information of the effects of the concentration of the compound on the different parameters to yield an overall toxicity profile. As set forth below, this overall toxicity profile will facilitate a determination of a plasma concentration Ctox that is predicted to be toxic in vivo. Ctox represents an estimate of the sustained plasma concentration in vivo that would result in toxicity, such as hepatotoxicity or hematopoietic toxicity.
Studies such as these indicate that a preferred concentration for setting Ctox is the highest concentration at which there is no observed effect on any of the indicators being measured in the cluster analysis, especially a 24-hour cluster analysis. […] It will be apparent that 24 hour assays are more time-effective, and consequently, the 24 hour NOEL/Ctox represents a preferred data point to select as Ctox in a CATS assay. It will also be apparent that, with further time studies, it may be possible to select an equally suitable Ctox at other CATS assay time points (e.g., between 24 and 72 hours, or less than 24 hours).
In certain embodiments, the predicting comprises performing concentration response analyses of measurements from at least three separate assays that are employed in the cluster analysis. For example, in the cell health cluster, such predicting will involve monitoring the concentration response effect of the compound on a first health indicator which monitors cellular replication, a second cell health indicator which monitors mitochondrial function, and a third cell health indicator which monitors membrane integrity. Of course, it is understood that fourth, fifth, sixth or more cell health indicators also may be employed. From these concentration response analyses, the highest concentration of the chemical compound at which a measurable toxic effect of the chemical compound is not observable, i.e. NOEL, is determined and the Ctox is identified as the concentration that correlates to the NOEL. In choosing the concentrations of the compound for analysis, one of skill in the art should devise a dose response regimen which is selected to provide an indication of cell health at concentrations of at least two concentration values higher than the Ctox concentration.
The Ctox (H4IIE) value was developed using 24 hr in vitro toxicity data and was validated by retrospectively evaluating compounds across different classes of drugs in 14-day rat studies in which compounds were administered on a daily basis and pharmacokinetic data was available. […] Thus, Ctox values are only determined for the 24 hr in vitro results. The 6 hr toxicity analyses are typically not performed but are beneficial for interpretation of results when compound toxicity is high (e.g., Ctox≦20 μM).

Intracellular ATP levels [5] = format: cell-based, rat; details: rat
Method: as §1, §4, §5, §6

MTT reduction [6] = format: cell-based, rat; details: rat, MTT TC50
Method: as §1, §3, §2

P-glycoprotein (PgP) = P-glycoprotein (PgP) binding: MTT with and without cyclosporin A; format: cell-based, rat; details: H4IIE 24 HR; for % Control (Compound + CSA) / % Control (Compound): MTT, 50 μM; for % Control (Compound + CSA): with cyclosporin A; for % Control (Compound): without CSA; for % Difference: 1-20% low, 20-50% moderate, 50-100% high PgP interaction
Method: Several antiviral drugs are substrates for P-glycoprotein transporter (PgP).
P-glycoprotein (PgP) transport proteins are expressed in the bile canalicular membrane of normal liver. However, in neoplastic cells it is not uncommon to have expression of this transporter system in the plasma membrane. […] The existence of these transporters was evaluated with the Calcein-AM assay and with known substrates of PgP.

[7] = Intracellular total glutathione (GSH); format: cell-based, rat; details: rat, Total GSH TC50
Method: as §1, §3

[8] = Cell number (propidium iodide); format: cell-based, rat; details: rat, Cell Number TC50
Method: as §1, §3
Cell Proliferation: Cell proliferation in each well was measured with propidium iodide (PI). This specific nucleic acid binding dye fluoresces when intercalated within the nucleic acids. The 15 nm shift enhances PI fluorescence approximately 20 times while the excitation maxima are shifted 30-40 nm. During method development experiments, it was determined that Triton-X-100 was the best solution to permeabilize the H4IIE cells thereby allowing the PI access to intracellular RNA and DNA. Fluorescence was measured using a Packard Fusion plate reader or equivalent reader at 540 nm excitation and 610 nm emission.
Cell Proliferation: After incubation, the test compound was removed and Triton X-100 solution containing propidium iodide is added. The plate was incubated and read on a fluorescent plate reader. Data was collected as relative fluorescent units (RFU). The blank was subtracted from the final well RFU. It represents the average of the first and last columns which contain no cells on that particular plate. The controls are untreated cells allowed to grow on the same plate. The compounds are represented by several separate RFU data points for each of the tested concentrations. The percent change relative to controls was calculated by dividing the average RFU by the control cell RFU and multiplying by 100.

[9] = Intracellular total glutathione (GSH); format: cell-based, rat; details: rat
Method: as §1

MTT reduction [10] = format: cell-based, rat; details: rat
Method: as §1, §2

[11] = MemTox membrane leakage (AK / α-GST); format: cell-based, rat; details: rat, MemTox TC50
Method: as §1, §3
(§7) Membrane Leakage (α-Glutathione S-transferase and/or Adenylate Kinase): The presence of Adenylate Kinase (AK) or α-Glutathione S-transferase (α-GST), both enzyme leakage markers, was measured in the culture medium using an activity assay for Adenylate Kinase and/or an ELISA assay for α-GST. At the end of the exposure period, the medium covering the cells in each well was removed and placed into new 96-well plates with appropriate labeling. […] Luminescence (AK) values were measured with a Packard Fusion or equivalent plate reader, and absorbance (α-GST) values were measured with a Packard SpectraCount™ or equivalent reader at 450 nm and reference absorbance at 650 nm.
(§8) Membrane Leakage (α-Glutathione S-transferase and/or Adenylate Kinase): Leakage of Adenylate Kinase or α-GST from the cell into the culture medium was determined by collecting the culture medium at the end of the exposure period. Thus, the values measured represent total enzyme leakage lost over the exposure period. The control for 100% dead or maximum enzyme release was based on cells treated with 1 mM digitonin at the time of dosing. Percent dead cells relative to digitonin treated cells was determined and then subtracted from 100% to yield the percent live cells.

[12] = MemTox membrane leakage (AK / α-GST); format: cell-based, rat; details: rat
Method: as §1, §7, §8

rat cardiomyocytes [13] = experiment: Membrane lipid peroxidation (8-isoprostane ELISA); format: cell-based; details: rat, 24 h
Method: (§9) One test compound (Compound A) was received as dry powder and evaluated for potential cytotoxicity in a battery of in vitro assays. The compound was tested using both rat cardiomyocytes (CM) from rat neonates and a rat hepatoma (H4IIE) cell line. […] Camptothecin and rotenone were included as positive control compounds. The cell supernatant or the cells themselves were harvested for biochemical analysis. General cytotoxicity was evaluated by monitoring membrane integrity, mitochondrial function, cell proliferation, oxidative stress, and apoptosis. In addition, interaction with P-glycoprotein (PgP) on H4IIE cells and solubility of the test compound were also assessed. The means of each exposure group (n=3-7) were calculated for each assay performed. Intra assay variation well-to-well was typically less than 10% with plate to plate variation typically less than 20%.

H4IIE cells [14] = experiment: Membrane lipid peroxidation (8-isoprostane ELISA); format: cell-based, rat; details: rat, 24 h
Method: as §9, §3

ANP = experiment: bDNA analysis of mRNA in rat cardiomyocytes; format: cell-based; details: rat cardiomyocytes
From the text: (§10) Hypertrophy of the heart ventricular myocytes is regulated by a complex series of intracellular signaling processes involving angiotensin receptors and a series of down stream gene expression changes (Li et al. 2006). Endothelin-1 (ET-1) induces hypertrophy of cardiomyocytes in vivo and in vitro. The mechanism of ET-1-induced hypertrophy consists in the activation of phospholipase C, protein kinase C, extra cellular signal regulated kinase (ERK) and upregulation of cfos and cjun.
(§11) Expression of ANP and BNP mRNA levels was determined by bDNA analysis of mRNA. ET-1 at 0.1 μM was included as a positive control.
(§12) […] Plates were mixed using a DPC 5 Micromix plate shaker at 37° C. for 15-30 minutes to ensure complete lysis of cells. Cell lysis was confirmed using a Nikon inverted microscope. Plates were stored at −80° C. until further analysis.
(§13) bDNA Analysis (Day 1): All solutions were prepared fresh on the day of analysis. Quantigene® bDNA kit components were brought to room temperature prior to use. Chemicals not supplied by Genospectra were obtained from Sigma-Aldrich.
(§14) On the day of analysis, Target Probe Sets were prepared for probe gene sets by adding 25 μL of each probe set component (CE, LE, BL) to 425 μL stock lysis solution using the following probe set concentrations: CE (50 fmol/μL), LE (200 fmol/μL), BL (100 fmol/μL).
(§15) Cell lysis plates were removed from freezer storage and thawed. […] Next, 10 μL of the appropriate Target Probe Set (PS2) was added to each appropriate well of the Capture Plate. Plates were tightly sealed using a plate sealer and incubated at 53° C. for 16-20 hr (overnight).
(§16) bDNA Analysis (Day 2): Wash buffer was prepared in ultra-pure water using 0.1×Saline-Sodium Citrate (SSC) and 0.03% Lithium Lauryl Sulfate (LLS). Amplifier working solution was prepared by adding 10 μL Amplifier to 10 mL Amplifier Diluent per plate.
(§17) Plates were removed from incubator and washed three times with 300 μL wash buffer. Wash buffer was completely removed from plates by aspiration and 100 μL Amplifier working solution was added to each well. Plates were sealed and incubated at 46° C. for 1 hr.
(§18) Label Probe working solution was prepared by adding 10 μL Label Probe to 10 mL Label Probe Diluent per plate. […] Plates were sealed and incubated at 46° C. for 1 hr.

BNP = experiment: bDNA analysis of mRNA in rat cardiomyocytes; format: cell-based; details: rat cardiomyocytes, 0.1 μM, after 3 hr
From the text: as §10, §11, §12, §13, §14, §15, §16, §17, §18

Molecule: CN(Cc1cnc2nc(N)nc(N)c2n1)c1ccc(C(=O)N[C@@H](CCC(=O)O)C(=O)O)cc1 [Methotrexate]
sensitivity of cell types in the anti-tumor screen [2]: the tumor cell line is most sensitive to mitochondrial damage

Molecule: CS(=O)(=O)c1ccc(C2=C(c3ccccc3)C(=O)OC2)cc1 [Vioxx]
induction of the hypertrophy marker ANP, Vioxx versus Celebrex (ANP; normalized with GAPDH): more effective at inducing the hypertrophy marker ANP

Molecule: Endothelin-1 (CSCSSLMDKECVYFCHLDIIW; ends and bridges not checked; cysteine pairing not given here; UniProt P05305 53-73, looked up) [ET-1, positive control inducing cardiomyocyte hypertrophy]
BNP expression increase (BNP): approximately 4.5 fold
ANP expression increase (ANP; 0.1 μM, after 3 hr): approximately 2 fold

The next lines start with results.

potency in heart cells relative to H4IIE liver cells (rat cardiomyocytes [1]): three to four-fold more potent
Molecule: Cc1ccc(NC(=O)c2ccc(CN3CCN(C)CC3)cc2)cc1Nc1nccc(-c2cccnc2)n1 [Imatinib]

% Difference (P-glycoprotein (PgP)): 21.9%
Molecule: Cc1ccnc2c1NC(=O)c1cccnc1N2C1CC1 [NEVIRAPINE, nevirapine]
CC50 at 24 h (Intracellular ATP levels [3]): > 300 µM
Predicted Ctox (H4IIE cells [4]): 100 µM
CC50 at 24 h (Intracellular ATP levels [5]): > 300 µM
CC50 at 24 h (MTT reduction [6]): > 300 µM
% Control (Compound + CSA) (P-glycoprotein (PgP)): 90.2%
% Control (Compound) (P-glycoprotein (PgP)): 115.5%
CC50 at 24 h [7]: > 300 µM
CC50 at 24 h [8]: > 300 µM
CC50 at 24 h [9]: 251 µM
CC50 at 24 h (MTT reduction [10]): > 300 µM
CC50 at 24 h [11]: > 300 µM
CC50 at 24 h [12]: > 300 µM

Membrane Lipid Peroxidation (rat cardiomyocytes [13]): 0
% Difference (P-glycoprotein (PgP)): 19.0%
Membrane Lipid Peroxidation (H4IIE cells [14]): 0
Molecule: CC(C)c1nc(CN(C)C(=O)N[C@H](C(=O)N[C@@H](Cc2ccccc2)C[C@H](O)[C@H](Cc2ccccc2)NC(=O)OCc2cncs2)C(C)C)cs1 [RITONAVIR, ritonavir]
Predicted Ctox (H4IIE cells [4]): 52 µM
% Control (Compound + CSA) (P-glycoprotein (PgP)): 81.5%
% Control (Compound) (P-glycoprotein (PgP)): 100.6%

From US7615361B2, “Toxicity screening methods” (Ceetox, Inc., priority 2006, dated 2009)
